In ChEMBL document CHEMBL5236632, “Membrane-Active Nonivamide Derivatives as Effective Broad-Spectrum Antimicrobials: Rational Design, Synthesis, and Biological Evaluation” (J Med Chem, 2022):
In brackets after ≈: the same amount, converted by molar mass. Activity calls are given as the source filed them. No cut-off for these calls is given here.

How the values were obtained:
[1] = Haemolytic activity in rabbit red blood cells incubated for 60 mins by k multi-mode reader relative to control; format: toxicity, cell-based, Oryctolagus cuniculus, Erythrocyte
Klebsiella pneumoniae [2] = test: Antibacterial activity against Klebsiella pneumoniae ATCC 14581 assessed as inhibition of visible growth measured after 18 to 24 hrs by broth dilution method; format: functional; settings: time 18-24 hrs
Pseudomonas aeruginosa = test: In vivo antibacterial activity against Pseudomonas aeruginosa ATCC 9027 infected in C57BL/6 mouse keratitis model assessed as reduction in number of viable bacterial colonies in infected cornea at 5 mg/kg topically 4 times per day for 3 consecutive days; format: functional; settings: route top, time 3 day
Klebsiella pneumoniae [3] = test: Antibacterial activity against Klebsiella pneumoniae ATCC 10031 assessed as inhibition of visible growth measured after 18 to 24 hrs in presence of 100 ug/ml Ca2+ by broth dilution method; format: functional; settings: time 18-24 hrs
[4] = Selectivity ratio, HC50 for hemolytic activity in rabbit RBC to MIC for antibacterial activity against methicillin-resistant Staphylococcus aureus N315; format: toxicity; settings: rabbit red blood cells
Staphylococcus aureus [5] = test: Inhibition of biofilm formation Staphylococcus aureus ATCC 29213 assessed as decrease in biofilm formation at 0.39 ug/ml measured after 24 hrs by crystal violet staining assay; format: functional
Staphylococcus aureus [6] = test: In vivo antibacterial activity against Staphylococcus aureus ATCC 29213 infected in C57BL/6 mouse keratitis model assessed as reduction in number of viable bacterial colonies in infected cornea at 5 mg/kg topically 4 times per day for 3 consecutive days; format: functional; settings: route top, time 3 day
Lipopolysaccharide (LPS) [7] = test: Displacement of BODIPY-TR-cadaverin from Escherichia coli lipopolysaccharide at MIC concentration incubated for 30 mins by fluorescence based analysis
Escherichia coli [8] = test: Antibacterial activity against Escherichia coli ATCC 25922 assessed as bacterial regrowth at 8 time of MIC measured after 24 hrs by time kill assay; format: functional, organism-based
Cell membrane [9] = test: Induction of membrane integrity disruption in methicillin-resistant Staphylococcus aureus NCTC 10442 assessed as increase fluoresence intensity at 4 to 8 times of MIC measured for 60 mins by SYTOX Green uptake assay; format: subcellular
Escherichia coli [10] = test: Antibacterial activity against Escherichia coli […] assessed as inhibition of visible growth measured after 18 to 24 hrs in presence of 3220 ug/ml Na+ by broth dilution method; format: functional; settings: time 18-24 hrs
Escherichia coli [11] = test: Eradication of biofilm in Escherichia coli ATCC 25922 assessed as biofilm viability at 3.13 ug/ml measured after 24 hrs by crystal violet staining assay; format: functional; settings: dose 3.13 µg/ml
Staphylococcus aureus [12] = test: Antibacterial activity against methicillin-resistant Staphylococcus aureus N315 assessed as inhibition of visible growth measured after 18 to 24 hrs in presence of 3220 ug/ml Na+ by broth dilution method; format: functional; settings: time 18-24 hrs
Staphylococcus aureus [13] = test: Drug resistance development in Staphylococcus aureus ATCC 29213 assessed as fold change in MIC measured after 20 passages; format: functional
Escherichia coli [14] = test: Inhibition of biofilm formation Escherichia coli ATCC 25922 assessed as decrease in biofilm formation at 0.39 ug/ml measured after 24 hrs by crystal violet staining assay; format: functional
Escherichia coli [15] = test: Antibacterial activity against Escherichia coli […] assessed as inhibition of visible growth measured after 18 to 24 hrs in presence of 24.3 ug/ml Mg2+ by broth dilution method; format: functional; settings: time 18-24 hrs
[16] = Selectivity ratio, HC50 for hemolytic activity in rabbit RBC to MIC for antibacterial activity against Klebsiella pneumoniae ATCC 10031; format: toxicity; settings: rabbit red blood cells
Cell membrane [17] = test: Induction of membrane integrity disruption in Escherichia coli ATCC 25922 assessed as increase fluoresence intensity at 4 to 8 times of MIC measured for 60 mins by SYTOX Green uptake assay; format: subcellular
Staphylococcus aureus [18] = test: Displacement of BODIPY-TR-cadaverin from Staphylococcus aureus lipoteichoic acid at 8 times of MIC incubated for 30 mins by fluorescence based analysis
Staphylococcus aureus [19] = test: Antibacterial activity against Staphylococcus aureus ATCC 29213 assessed as inhibition of visible growth measured after 18 to 24 hrs in presence of 100 ug/ml Ca2+ by broth dilution method; format: functional; settings: time 18-24 hrs
Staphylococcus aureus [20] = test: Antibacterial activity against Staphylococcus aureus ATCC 29213 assessed as reduction in bacterial load at 8 time of MIC measured after 8 hrs by time kill assay; format: functional
Escherichia coli [21] = test: Inhibition of biofilm formation Escherichia coli ATCC 25922 assessed as decrease in biofilm formation at 3.13 ug/ml measured after 24 hrs by crystal violet staining assay; format: functional
Lipopolysaccharide (LPS) [22] = test: Displacement of BODIPY-TR-cadaverin from Escherichia coli lipopolysaccharide at 8 times of MIC incubated for 30 mins by fluorescence based analysis
Staphylococcus aureus [23] = test: Antibacterial activity against methicillin-resistant Staphylococcus aureus N315 assessed as inhibition of visible growth measured after 18 to 24 hrs in presence of 24.3 ug/ml Mg2+ by broth dilution method; format: functional; settings: time 18-24 hrs
[24] = Cytotoxicity against mouse NCTC clone 929 cells assessed as cell viability after 24 hrs incubation byCCK-8 assay; format: toxicity, cell-based
Staphylococcus aureus [25] = test: Antibacterial activity against methicillin-resistant Staphylococcus aureus NCTC 10442 assessed as inhibition of visible growth measured after 18 to 24 hrs in presence of 3220 ug/ml Na+ by broth dilution method; format: functional; settings: time 18-24 hrs
Staphylococcus aureus [26] = test: Eradication of biofilm in Staphylococcus aureus ATCC 29213 assessed as biofilm viability at […] ug/ml measured after 24 hrs by crystal violet staining assay; format: functional; settings: dose […] microg/ml, 1.56 ug/mL
Klebsiella pneumoniae [27] = test: Antibacterial activity against Klebsiella pneumoniae ATCC 10031 assessed as inhibition of visible growth measured after 18 to 24 hrs by broth dilution method; format: functional; settings: time 18-24 hrs
Staphylococcus aureus [28] = test: Antibacterial activity against Staphylococcus aureus ATCC 29213 assessed as fold increase in MIC measured after 18 to 24 hrs in presence of 512 ug/ml LTA/LPS by broth dilution method; format: functional; settings: time 18-24 hrs
Staphylococcus aureus [29] = test: Antibacterial activity against methicillin-resistant Staphylococcus aureus NCTC 10442 assessed as inhibition of visible growth measured after 18 to 24 hrs in presence of 175.5 ug/ml K+ by broth dilution method; format: functional; settings: time 18-24 hrs
Escherichia coli [30] = test: Antibacterial activity against Escherichia coli […] assessed as inhibition of visible growth measured after 18 to 24 hrs in presence of 175.5 ug/ml K+ by broth dilution method; format: functional; settings: time 18-24 hrs
Escherichia coli [31] = test: Eradication of biofilm in Escherichia coli ATCC 25922 assessed as biofilm viability at […] ug/ml measured after 24 hrs by crystal violet staining assay; format: functional; settings: dose […] microg/ml, 1.56 ug/mL
Escherichia coli [32] = test: Antibacterial activity against Escherichia coli ATCC 25922 assessed as fold increase in MIC measured after 18 to 24 hrs in presence of 512 ug/ml LTA/LPS by broth dilution method; format: functional; settings: time 18-24 hrs
[33] = Selectivity ratio, HC50 for hemolytic activity in rabbit RBC to MIC for antibacterial activity against Staphylococcus aureus ATCC 29213; format: toxicity; settings: rabbit red blood cells
Cell membrane [34] = test: Induction of membrane depolarization in Escherichia coli ATCC 25922 assessed as increase in fluorescence intensity at 4 to 8 times MIC measured for 60 mins by DiSC3(5) dye based fluorescence method; format: subcellular
[35] = Selectivity ratio, HC50 for hemolytic activity in rabbit RBC to MIC for antibacterial activity against Acinetobacter baumannii ATCC 17978; format: toxicity; settings: rabbit red blood cells

Structure (SMILES): CCCCCCCCC(=O)NCc1ccc(OCCCCCCNC(=N)N)c(OCCCCCCNC(=N)N)c1
- HC5 ([1]; erythrocyte, 1 h): 64.3 µg/mL
- HC50 at 1 h ([1]; rabbit red blood cells): 135 µg/mL
- MIC (Klebsiella pneumoniae [2]): 1.56 µg/mL (≈ 2.78 µM)
- Activity (Pseudomonas aeruginosa): 4.69 log10CFU/ml
- MIC (Klebsiella pneumoniae [3]): 3.12 µg/mL
- selectivity ratio [4]: 173
- inhibition at 0.39 µg/mL (Staphylococcus aureus [5]): 97.8%
- Activity (Staphylococcus aureus [6]): 6.5 log10CFU/ml
- Activity (Lipopolysaccharide (LPS) [7]): 56.4%
- Activity (Escherichia coli [8]): Active
- Activity (Cell membrane [9]): Active
- MIC (Escherichia coli [10]): 1.56 µg/mL
- Activity (Escherichia coli [11]): 38.07%
- MIC (Staphylococcus aureus [12]): 0.39 µg/mL
- fold change (FC) (Staphylococcus aureus [13]): <4
- inhibition at 0.39 µg/mL (Escherichia coli [14]): 85.1%
- MIC (Escherichia coli [15]): 1.56 µg/mL
- selectivity ratio [16]: 21.6
- Activity (Cell membrane [17]): Active
- Activity (Staphylococcus aureus [18]): 38.4%
- MIC (Staphylococcus aureus [19]): 0.39 µg/mL
- Activity (Staphylococcus aureus [20]): 3.59 log10CFU/ml
- inhibition at 3.13 µg/mL (Escherichia coli [21]): 106%
- Activity (Lipopolysaccharide (LPS) [22]): 103%
- MIC (Staphylococcus aureus [23]): 0.39 µg/mL
- CC50 at 24 h [24]: 35.2 µg/mL (≈ 62.7 µM)
- MIC (Staphylococcus aureus [25]): 0.39 µg/mL
- Activity (Staphylococcus aureus [26]): 36.07%
- MIC (Klebsiella pneumoniae [27]): 1.56 µg/mL (≈ 2.78 µM)
- fold change (FC) (Staphylococcus aureus [28]): 8
- MIC (Staphylococcus aureus [29]): 0.39 µg/mL
- MIC (Escherichia coli [30]): 1.56 µg/mL
- Activity (Escherichia coli [31]): 93.71%
- fold change (FC) (Escherichia coli [32]): 16
- selectivity ratio [33]: 173
- Activity (Cell membrane [34]): Active
- selectivity ratio [35]: 21.6
